Measurements from patent US10307407B2, “9H-pyrimido [4,5-B] indoles as BET bromodomain inhibitors” (THE REGENTS OF THE UNIVERSITY OF MICHIGAN, priority 2015, dated 2019).

Experiments:
MV4-11 cells = assay: Cell growth inhibition, 4-day proliferation assay, MV4-11; assay type: cell-based; conditions: Homo sapiens, MV4-11, 96 h, acute leukemia cell line, 4 days treatment
Procedure: (§1) The effect of representative Compounds of the Disclosure on cell viability was determined in a 4-day proliferation assay. Cells were maintained in the appropriate culture medium with 10% FBS at 37° C. and an atmosphere of 5% CO2. All the cell lines were used within three months of thawing fresh vials.
(§2) Cells were seeded in 96-well flat bottom (Corning COSTAR, Corning, NY, cat#3595) or white opaque cell culture plates (BD Falcon, cat#353296) at a density of 3,000-10,000 cells/well in 75 μl of culture medium. Compounds were serially diluted in the appropriate medium, and 75 μl of the diluted compounds were added to the appropriate wells of the cell plate. After the addition of compounds, the cells were incubated at 37° C. in an atmosphere of 5% CO2 for 4 days. Cell viability was determined using the CellTiter-Glo® Luminescent Cell Viability Assay Kit (Promega, Madison, Wis.) for RS4-11 and MV4-11 cells and WST (2-(2-methoxy-4-nitrophenyl)-3-(4-nitrophenyl)-5-(2,4-disulfophenyl)-2H-tetrazolium, monosodium salt) Cell Counting-8 Kit (Dojindo Molecular Technologies, Inc., Rockville, Md.) for MDA-MB-231 cells according to the manufacturers' instructions.
For CellTiter-Glo assay (RS4-11 and MV4-11 cells), 100 μl of CellTiter-Glo® Reagent was added to each well, and then the plates were incubated at room temperature for 10-20 minutes. The luminescent signal was measured using a Tecan Infinite M1000 multimode microplate reader (Tecan, Morrisville, N.C.). The readings were normalized to the DMSO-treated cells and the IC50 was calculated by nonlinear regression (four parameters sigmoid fitted with variable slope, least squares fit, and no constraint) analysis using the GraphPad Prism 5 software.
(§3) Cell growth inhibition of representative Compounds of the Disclosure in representative breast cancer (MDA-MB-231), acute leukemia (MV4-11), and prostate cancer cell lines (LNCaP), as determined by a WST assay, are presented in Table 3. Cells were treated with each inhibitor for 4 days.

MDA-MB-231 cells = assay: Cell growth inhibition, 4-day proliferation assay (WST), MDA-MB-231; assay type: cell-based; conditions: Homo sapiens, MDA-MB-231, 96 h, breast cancer cell line, 4 days treatment
Procedure: as §1, §2
For WST assay (MDA-MB-231 cells), WST-8 reagent was added to each well at a final concentration of 10% (v/v), and then the plates were incubated at 37° C. for 1-2 hours for color development. The absorbance was measured at 450 nm using a SPECTRAmax PLUS plate reader (Molecular Devices, Sunnyvale, Calif.). The readings were normalized to the DMSO-treated cells and the half maximal inhibitory concentration (IC50) was calculated by nonlinear regression (four parameters sigmoid fitted with variable slope, least squares fit, and no constraint) analysis using the GraphPad Prism 5 software (GraphPad Software, La Jolla, Calif.).
as §3

recombinant BRD4 BD1 = molecular target: T1, recombinant BRD4 BD1 (Homo sapiens, UniProt O60885); assay: Competitive fluorescence-polarization (FP) binding assay, BRD4 BD1; conditions: FAM labeled probe 1.5 nM, protein 10 nM, pH 6.5
T1 construct: recombinant BRD4 BD1 and BRD4 BD2 proteins
Procedure: (§4) Fluorescence Polarization (FP) competitive binding studies were carried out using a FAM labeled fluorescent probe (ZBA248 or BRD-1F) to determine binding affinities of representative Compounds of the Disclosure for recombinant BRD4 BD1 and BRD4 BD2 proteins. For example, equilibrium dissociation constants (Kd) values of ZBA248 to these six proteins were determined from protein saturation experiments by monitoring the total fluorescence polarization of mixtures composed with the fluorescent probe at a fixed concentration and proteins with increasing concentrations up to full saturation. Serial dilutions of testing protein were mixed with ZBA248 to a final volume of 200 μl in the assay buffer. In order to achieve large dynamic rages, particularly for BD1 bromodomains, 100 mM phosphate buffer (pH=6.5, 0.01% Triton X-100 (Sigma, 282103) being added right before assays) was used as the assay buffer. Final ZBA248 concentration was 1.5 nM for all proteins. Plates were incubated at room temperature for 30 minutes with gentle shaking to assure equilibrium. FP values in millipolarization units (mP) were measured using the Infinite M-1000 plate reader (Tecan U.S., Research Triangle Park, N.C.) in Microfluor 1 96-well, black, round-bottom plates (Thermo Scientific, Waltham, Mass.) at an excitation wavelength of 485 nm and an emission wavelength of 530 nm. Kd values of ZBA248 were calculated by fitting the sigmoidal dose-dependent FP increases as a function of protein concentrations using Graphpad Prism 6.0 software (Graphpad Software, San Diego, Calif.).
(§5) The IC50 and Ki values of representative Compounds of the Disclosure were determined in a competitive binding experiment as described above. Mixtures of 10 μl of the tested compounds in assay buffer with 40% Ethylene Glycol and 190 μl of preincubated protein/probe complex solution in the assay buffer (100 mM potassium phosphate, pH 6.5, 0.01% Triton X-100) were added into assay plates which were incubated at room temperature for 30 minutes with gentle shaking. Final concentrations of proteins were 10 and 6 nM in assays for BD1 and BD2 of BRD4, respectively. Final probe concentration is 1.5 nM in all assays. Negative controls containing protein/probe complex only (equivalent to 0% inhibition), and positive controls containing only free probes (equivalent to 100% inhibition), were included in each assay plate. FP values were measured as described above. IC50 values were determined by nonlinear regression fitting of the competition curves. Instead of being calculated from IC50 values as described before, Ki values of competitive inhibitors were obtained directly by nonlinear regression fitting as well, based upon the Kd values of the probe to different proteins, and concentrations of the proteins and probes in the competitive assays (Wang, FEBS Lett. 360; 111 (1995); Zhang et al., Analytical Biochemistry, 331; 138 (2004)).
(§6) Binding affinities of representative Compounds of the Disclosure to BRD4 BD1 and BRD4 BD2 proteins in competitive, fluorescence-polarization assays are presented in Table 2.

recombinant BRD4 BD2 = molecular target: T2, recombinant BRD4 BD2 (Homo sapiens, UniProt O60885); assay: Competitive fluorescence-polarization (FP) binding assay, BRD4 BD2; conditions: FAM labeled probe 1.5 nM, protein 6 nM, pH 6.5
T2 construct: recombinant BRD4 BD1 and BRD4 BD2 proteins
Procedure: as §4, §5, §6

LNCaP cells = assay: Cell growth inhibition, 4-day proliferation assay, LNCaP; assay type: cell-based; conditions: Homo sapiens, 96 h, prostate cancer cell line, 4 days treatment
Procedure: as §1, §2, §3

CCn1nc(C2CC2)cc1Nc1nc(COC)nc2[nH]c3cc(-c4c(C)noc4C)c(OC)cc3c12 [Cpd. No. 5, N-(3-cyclopropyl-1-ethyl-1H-pyrazol-5-yl)-7-(3,5-dimethylisoxazol-4-yl)-6-methoxy-2-(methoxymethyl)-9H-pyrimido[4,5-b]indol-4-amine]
IC50 (MV4-11 cells): 3 nM | IC50 (MDA-MB-231 cells): 13 nM | IC50 (recombinant BRD4 BD1): 5.5 nM | IC50 (recombinant BRD4 BD2): 2.4 nM | IC50 (LNCaP cells): 3 nM
